Measured values: paper PMC11079024, “Identification of a family of species-selective complex I inhibitors as potential anthelmintics” (Nature Communications, 2024)
Where “and” joins values, the source holds several entries; their conditions need not be identical. Equal values may be shown once. Read-outs that look alike come from different tables or passages of the source.

Test system: anthelmintic/nematicide-resistant C. elegans mutant strains
Test: microbe, parasite or virus in culture
Conditions: for LC50: Caenorhabditis elegans; for dose response data: mev-1 (tr355)
Description: In addition to the Caenorhabditis elegans wild-type N2 strain, this work included the following C. elegans strains: CB1003 (kynu-1(e1003) X); anthelmintic-resistant strains—CB3474 (ben-1(e1880) III), CB193 (unc-29(e193) I), HY496 (bre-1(ye4) IV), RB2119 (acr-23(ok2804) V), JD608 (avr-14(ad1302) I; avr-15(ad1051) V; glc-1 (pk54) V), NM1968 (slo-1(js379) V), RP2635 (mev-1(tr355) III); benzimidazole-resistant CRISPR strains—ECA882 (ben-1(ean64) III), ECA917 (ben-1(ean98) III), ECA1075 (ben-1(ean143) III), ECA1080 (ben-1(ean148) III). This work also featured several additional free-living nematode strains: C. briggsae strain AF16, P. pacificus strain PS312, and P. hermaphrodita strain B178. The four CRISPR-generated benzimidazole-resistant C. elegans mutants were generously provided by Prof. Erik Andersen (Johns Hopkins University); PS312 and B178 were generously provided by Prof. Peter Roy (University of Toronto); all other strains were obtained from the Caenorhabditis Genetics Center (CGC, University of Minnesota). All strains were cultured and propagated at 20 °C on NGM (nematode growth medium) agar plates seeded with E. coli OP50 (Stiernagle, 2006)[56].
Liquid development and viability assays were adapted from a previously established chemical screening protocol (Burns et al.)[24]. In brief, a saturated culture of E. coli HB101 was concentrated 2-fold in liquid NGM and 40 μL of this suspension was distributed to each well of a 96-well flat-bottom culture plate. 0.5 μL chemical solution (or DMSO alone) was added to each well (1% DMSO v/v) using either a multi-channel pipette or a pinning tool (V&P Scientific). L1 worms synchronized from an embryo preparation performed the day prior were diluted to a concentration of ~2 worms/μL in M9 buffer; 10 μL worm suspension was then added to each well. Culture plates were sealed with parafilm and placed in a plastic container lined with wet paper towels to prevent evaporation. Containers were then incubated for 6 days at 20 °C with shaking at 165 rpm. Following incubation, 300 μL M9 was added to each well to decrease the turbidity of the HB101-NGM suspension. Single images of each microplate well were then taken on a Nikon Ti Eclipse inverted microscope (Nikon NIS Elements AR). Images were processed using Python scripts to isolate worm-associated pixels from background. Scores of worm development and viability were determined as the sum of worm-associated pixels in each well. Development/viability scores for each well were divided by the development /viability scores for the corresponding DMSO controls, resulting in a relative viability value for each chemical. At least three biological replicates were performed for each dose-response experiment; relative viability values were averaged across replicates.
Supplementary Table 2. Sensitivity of anthelmintic/nematicide-resistant strains to Class A, B, and C
benzimidazole complex I inhibitors.
LC50s were estimated from fitted dose-
response curves; all dose response data are the mean of at least three biological replicates.
Supplementary Table 2. Davie et al.

[1] = read-out: C. elegans Development & Viability LC50, acr-23(ok2804)
[2] = read-out: C. elegans Development & Viability LC50, avr-14(ad1302), avr-15(ad1051), glc-1(pk54)
[3] = read-out: C. elegans Development & Viability LC50, ben-1(e1880)
[4] = read-out: C. elegans Development & Viability LC50, bre-1(ye4)
[5] = read-out: C. elegans Development & Viability LC50, mev-1(tr355)
[6] = read-out: C. elegans Development & Viability LC50, slo-1(js379)
[7] = read-out: C. elegans Development & Viability LC50, unc-29(e193)

`COC(=O)Nc1nc2ccc(C(=O)c3ccccc3)cc2[nH]1` [mebendazole, reference compound] was tested, and the “C. elegans L1 relative development & viability” value (CB3474 G104D (ben-1), 1 µM, score 0-1 relative to DMSO, values >1 set to 1) was 1.000, the “C. elegans L1 relative development & viability” value (CB3474 G104D (ben-1), 2 µM, score 0-1 relative to DMSO, values >1 set to 1) was 1.000 and the “C. elegans L1 relative development & viability” value (CB3474 G104D (ben-1), 3.9 µM, score 0-1 relative to DMSO, values >1 set to 1) was 1.000. The “C. elegans L1 relative development & viability” value (CB3474 G104D (ben-1), 15.6 µM, score 0-1 relative to DMSO, values >1 set to 1) was 1.000, the “C. elegans L1 relative development & viability” value (CB3474 G104D (ben-1), 31.3 µM, score 0-1 relative to DMSO, values >1 set to 1) was 1.000 and the “C. elegans L1 relative development & viability” value (CB3474 G104D (ben-1), 62.5 µM, score 0-1 relative to DMSO, values >1 set to 1) was 1.000. For the same compound, the “C. elegans L1 relative development & viability” value (CB3474 G104D (ben-1), 125 µM, […]) was 0.918, the “C. elegans L1 relative development & viability” value (CB3474 G104D (ben-1), 250 µM, […]) was 0.816 and the “C. elegans L1 relative development & viability” value (ECA917 F200Y (ben-1), 1 µM, score 0-1 relative to DMSO, values >1 set to 1) was 1.000. For the same compound, the “C. elegans L1 relative development & viability” value (ECA917 F200Y (ben-1), 2 µM, score 0-1 relative to DMSO, values >1 set to 1) was 1.000, the “C. elegans L1 relative development & viability” value (ECA917 F200Y (ben-1), 3.9 µM, score 0-1 relative to DMSO, values >1 set to 1) was 1.000 and the “C. elegans L1 relative development & viability” value (ECA917 F200Y (ben-1), 15.6 µM, score 0-1 relative to DMSO, values >1 set to 1) was 1.000. For the same compound, the “C. elegans L1 relative development & viability” value (ECA917 F200Y (ben-1), 31.3 µM, […]) was 0.958, the “C. elegans L1 relative development & viability” value (ECA917 F200Y (ben-1), 62.5 µM, […]) was 0.687 and the “C. elegans L1 relative development & viability” value (ECA917 F200Y (ben-1), 125 µM, […]) was 0.515. The “C. elegans L1 relative development & viability” value (ECA917 F200Y (ben-1), 250 µM, […]) was 0.575, the “C. elegans L1 relative development & viability” value (ECA1075 F167Y (ben-1), 1 µM, score 0-1 relative to DMSO, values >1 set to 1) was 1.000 and the “C. elegans L1 relative development & viability” value (ECA1075 F167Y (ben-1), 2 µM, score 0-1 relative to DMSO, values >1 set to 1) was 1.000. The “C. elegans L1 relative development & viability” value (ECA1075 F167Y (ben-1), 3.9 µM, score 0-1 relative to DMSO, values >1 set to 1) was 1.000, the “C. elegans L1 relative development & viability” value (ECA1075 F167Y (ben-1), 15.6 µM, score 0-1 relative to DMSO, values >1 set to 1) was 1.000 and the “C. elegans L1 relative development & viability” value (ECA1075 F167Y (ben-1), 31.3 µM, […]) was 0.936. The “C. elegans L1 relative development & viability” value (ECA1075 F167Y (ben-1), 62.5 µM, […]) was 0.436, the “C. elegans L1 relative development & viability” value (ECA1075 F167Y (ben-1), 125 µM, […]) was 0.502 and the “C. elegans L1 relative development & viability” value (ECA1075 F167Y (ben-1), 250 µM, […]) was 0.324. For the same compound, the “C. elegans L1 relative development & viability” value (ECA1080 E198A (ben-1), 1 µM, score 0-1 relative to DMSO, values >1 set to 1) was 1.000, the “C. elegans L1 relative development & viability” value (ECA1080 E198A (ben-1), 2 µM, score 0-1 relative to DMSO, values >1 set to 1) was 1.000 and the “C. elegans L1 relative development & viability” value (ECA1080 E198A (ben-1), 3.9 µM, score 0-1 relative to DMSO, values >1 set to 1) was 1.000. The “C. elegans L1 relative development & viability” value (ECA1080 E198A (ben-1), 15.6 µM, score 0-1 relative to DMSO, values >1 set to 1) was 1.000, the “C. elegans L1 relative development & viability” value (ECA1080 E198A (ben-1), 31.3 µM, score 0-1 relative to DMSO, values >1 set to 1) was 1.000 and the “C. elegans L1 relative development & viability” value (ECA1080 E198A (ben-1), 62.5 µM, […]) was 0.746. For the same compound, the “C. elegans L1 relative development & viability” value (ECA1080 E198A (ben-1), 125 µM, […]) was 0.386 and the “C. elegans L1 relative development & viability” value (ECA1080 E198A (ben-1), 250 µM, […]) was 0.470.

Compound `CC(C)Cc1ccc(C(C)c2nc3ccccc3n2C)cc1` (stereo not drawn) [NPD8790] has an LC50 [1] greater than 1000 µM, an LC50 [2] greater than 1000 µM and an LC50 [3] greater than 1000 µM. For the same compound, the LC50 [4] was greater than 1000 µM, the LC50 [5] was greater than 1000 µM and the LC50 [6] was 177 µM. The LC50 [7] was greater than 1000 µM.

`C=C(C)[C@H]1Cc2c(ccc3c2O[C@@H]2COc4cc(OC)c(OC)cc4[C@@H]2C3=O)O1` [Rotenone, reference compound] gave an LC50 [1] of 2.1 µM, an LC50 [2] of 1.4 µM and an LC50 [3] of 3.4 µM. The LC50 [4] was 3.5 µM, the LC50 [5] was 3.2 µM and the LC50 [6] was 1 µM. For the same compound, the LC50 [7] was 1.5 µM.

`Cc1ccccc1OCCCCn1cnc2ccccc21` [Compound 7732524] was tested, and the LC50 [1] was 50.2 µM, the LC50 [2] was 46.5 µM and the LC50 [3] was 50 µM. For the same compound, the LC50 [4] was 41.2 µM, the LC50 [5] was 42.9 µM and the LC50 [6] was 31.4 µM. For the same compound, the LC50 [7] was 37.8 µM, the dose response data (concentration step 1 of 13 (c108)) was 0.998 and 1.000 and the dose response data (concentration step 3 of 13 (c110)) was 0.989 and 1.000. The dose response data (concentration step 4 of 13 (c111)) was 1.000 and 0.845, the dose response data (concentration step 5 of 13 (c112)) was 1.000 and 0.955 and the dose response data (concentration step 6 of 13 (c113)) was 1.000 and 0.835. For the same compound, the dose response data (concentration step 7 of 13 (c114)) was 1.000 and the dose response data (concentration step 8 of 13 (c115)) was 1.000 and 0.746.
